From US8846719B2, “Isoxazolo-pyridine derivatives” (Roche Palo Alto LLC, priority 2007, dated 2014)

Molecular target: human GABA A receptor α5β3γ2 (Homo sapiens (Human), UniProt P18507+P31644)
Experiment: [3H]flumazenil competition binding assay, human GABA A α5β3γ2 receptors expressed in HEK293 cells
Settings: human receptor; displacement of [3H]flumazenil (0.5 nM); means of two determinations; read-out: hKi GABAAa5
Protocol: The affinity of compounds at GABA A receptor subtypes was measured by competition for [3H]flumazenil (85 Ci/mmol; Roche) binding to HEK293 cells expressing rat (stably transfected) or human (transiently transfected) receptors of composition α1β3γ2, α2β3γ2, α3β3γ2 and α5β3γ2.
Cell pellets were suspended in Krebs-tris buffer (4.8 mM KCl, 1.2 mM CaCl2, 1.2 mM MgCl2, 120 mM NaCl, 15 mM Tris; pH 7.5; binding assay buffer), homogenized by polytron for ca. 20 sec on ice and centrifuged for 60 min at 4° C. (50000 g; Sorvall, rotor: SM24=20000 rpm). The cell pellets were resuspended in Krebs-tris buffer and homogenized by polytron for ca. 15 sec on ice. Protein was measured (Bradford method, Bio-Rad) and aliquots of 1 mL were prepared and stored at −80° C.
Assays were incubated to equilibrium for 1 hour at 4° C. and harvested onto GF/C uni-filters (Packard) by filtration using a Packard harvester and washing with ice-cold wash buffer (50 mM Tris; pH 7.5). After drying, filter-retained radioactivity was detected by liquid scintillation counting. Ki values were calculated using Excel-Fit (Microsoft) and are the means of two determinations.

Compound: Cc1onc(-c2ccc(Cl)cc2)c1COc1ccc(C(=O)N2CCS(=O)(=O)CC2)cn1 [Example 122, {6-[3-(4-Chloro-phenyl)-5-methyl-isoxazol-4-ylmethoxy]-pyridin-3-yl}-(1,1-dioxo-1,6-thiomorpholin-4-yl)-methanone]
- Ki: 2.9 nM

Compound: Cc1onc(-c2cccnc2)c1COc1ccc(C(=O)NC(C)C)cn1 [Example 158, N-Isopropyl-6-(5-methyl-3-pyridin-3-yl-isoxazol-4-ylmethoxy)-nicotinamide]
- Ki: 31.7 nM

Compound: Cc1onc(-c2ccccn2)c1COc1ccc(C(=O)O)cn1 [Example 283, 6-(5-Methyl-3-pyridin-2-yl-isoxazol-4-ylmethoxy)-nicotinic acid]
- Ki: 22.3 nM

Compound: O=C(NC1CC1)c1ccc(OCc2c(-c3ccc(F)cc3)noc2C(F)(F)F)nc1 [Example 143, N-Cyclopropyl-6-[3-(4-fluoro-phenyl)-5-trifluoromethyl-isoxazol-4-ylmethoxy]-nicotinamide]
- Ki: 38.4 nM

Compound: Cc1onc(-c2ccc(Cl)cn2)c1COc1ccc(C(=O)NCC(F)(F)F)cn1 [Example 308, 6-[3-(5-Chloro-pyridin-2-yl)-5-methyl-isoxazol-4-ylmethoxy]-(2,2,2-trifluoro-ethyl)-nicotinamide]
- Ki: 0.2 nM

Compound: COC(=O)c1ccc(OCc2c(-c3ccc(F)cc3)noc2C)nc1 [Example 103, 6-[3-(4-Fluoro-phenyl)-5-methyl-isoxazol-4-ylmethoxy]-nicotinic acid methyl ester]
- Ki: 16.2 nM

Compound: Cc1onc(-c2cccc(F)c2)c1COc1ccc(C(=O)NC2CCOCC2)cn1 [Example 93, 6-[3-(3-Fluoro-phenyl)-5-methyl-isoxazol-4-ylmethoxy]-N-(tetrahydro-pyran-4-yl)-nicotinamide]
- Ki: 1.7 nM

Compound: Cc1onc(-c2ccccc2)c1COc1ccc(C(=O)NCCF)cn1 [Example 10, N-(2-Fluoro-ethyl)-6-(5-methyl-3-phenyl-isoxazol-4-ylmethoxy)-nicotinamide]
- Ki: 4.4 nM

Compound: Cc1onc(-c2ccncn2)c1COc1ccc(C(=O)N2CCOCC2)cn1 [Example 316, [6-(5-Methyl-3-pyrimidin-4-yl-isoxazol-4-ylmethoxy)-pyridin-3-yl]-morpholin-4-yl-methanone]
- Ki: 36.2 nM

Compound: COC(=O)[C@H](Cc1ccccc1)NC(=O)c1ccc(OCc2c(-c3ccccc3)noc2C)nc1 [Example 229, (S)-2-{[6-(5-Methyl-3-phenyl-isoxazol-4-ylmethoxy)-pyridine-3-carbonyl]-amino}-3-phenyl-propionic acid methyl ester]
- Ki: 47.7 nM

Compound: Cc1onc(-c2ccccc2)c1COc1ccc(C(=O)N2CCOCC2)cn1 [Example 53, [6-(5-Methyl-3-phenyl-isoxazol-4-ylmethoxy)-pyridin-3-yl]-morpholin-4-yl-methanone]
- Ki: 23.6 nM

Compound: Cc1onc(-c2ccccc2)c1COc1ccc(C(=O)NCC2CCOC2)cn1 (stereo not shown) [Example 77, 6-(5-Methyl-3-phenyl-isoxazol-4-ylmethoxy)-N-(tetrahydro-furan-3-ylmethyl)-nicotinamide]
- Ki: 4.6 nM

Compound: Cc1onc(-c2ccccn2)c1COc1ccc(C(=O)N2CCSCC2)cn1 [Example 282, [6-(5-Methyl-3-pyridin-2-yl-isoxazol-4-ylmethoxy)-pyridin-3-yl]-thiomorpholin-4-yl-methanone]
- Ki: 6.8 nM

Compound: O=C(NCC(F)(F)F)c1ccc(OCc2conc2-c2ccccn2)nc1 [Example 362, 6-(3-Pyridin-2-yl-isoxazol-4-ylmethoxy)-N-(2,2,2-trifluoro-ethyl)-nicotinamide]
- Ki: 8 nM

Compound: CC(C)(CO)NC(=O)c1ccc(OCc2conc2-c2ccc(F)cn2)nc1 [Example 368, 6-[3-(5-Fluoro-pyridin-2-yl)-isoxazol-4-ylmethoxy]-(2-hydroxy-1,1-dimethyl-ethyl)-nicotinamide]
- Ki: 44.9 nM

Compound: Cc1onc(-c2ccccc2)c1COc1ccc(C(=O)NCc2cc(C3CC3)[nH]n2)cn1 [Example 20, N-(5-Cyclopropyl-1H-pyrazol-3-ylmethyl)-6-(5-methyl-3-phenyl-isoxazol-4-ylmethoxy)-nicotinamide]
- Ki: 21.6 nM

Compound: O=C(NC1CCOCC1)c1ccc(OCc2conc2-c2ccc(F)cn2)nc1 [Example 365, 6-[3-(5-Fluoro-pyridin-2-yl)-isoxazol-4-ylmethoxy]-(tetrahydro-pyran-4-yl)-nicotinamide]
- Ki: 8 nM

Compound: Cc1onc(-c2ccccc2)c1COc1ccc(C(=O)N2CCC23COC3)cn1 [Example 82, [6-(5-Methyl-3-phenyl-isoxazol-4-ylmethoxy)-pyridin-3-yl]-(6-oxa-1-aza-spiro[3.3]hept-1-yl)-methanone]
- Ki: 16.8 nM

Compound: Cc1onc(-c2ccc(F)cn2)c1COc1ccc(C(=O)NC2CC2)cn1 [Example 290, Cyclopropyl-6-[3-(5-fluoro-pyridin-2-yl)-5-methyl-isoxazol-4-ylmethoxy]-nicotinamide]
- Ki: 0.6 nM

Compound: CNC(=O)c1ccc(OCc2conc2-c2ccc(F)cn2)nc1 [Example 372, 6-[3-(5-Fluoro-pyridin-2-yl)-isoxazol-4-ylmethoxy]-methyl-nicotinamide]
- Ki: 18.5 nM

Compound: Cc1onc(-c2ccccc2F)c1COc1ccc(C(=O)NCC(F)(F)C(F)(F)F)cn1 [Example 85, 6-[3-(2-Fluoro-phenyl)-5-methyl-isoxazol-4-ylmethoxy]-N-(2,2,3,3,3-pentafluoro-propyl)-nicotinamide]
- Ki: 9.8 nM

Compound: Cc1onc(-c2ccccc2)c1COc1ccc(C(=O)NCc2cc(C(C)C)no2)cn1 [Example 80, N-(3-Isopropyl-isoxazol-5-ylmethyl)-6-(5-methyl-3-phenyl-isoxazol-4-ylmethoxy)-nicotinamide]
- Ki: 44.4 nM

Compound: O=C(NCC(F)(F)F)c1ccc(OCc2c(-c3ccc(F)cc3)noc2C(F)(F)F)nc1 [Example 140, 6-[3-(4-Fluoro-phenyl)-5-trifluoromethyl-isoxazol-4-ylmethoxy]-N-(2,2,2-trifluoro-ethyl)-nicotinamide]
- Ki: 57.8 nM

Compound: Cc1onc(-c2ccc(F)cc2)c1CNc1ccc(C(=O)NC2CCOCC2)cn1 [Example 177, 6-{[3-(4-Fluoro-phenyl)-5-methyl-isoxazol-4-ylmethyl]-amino}-N-(tetrahydro-pyran-4-yl)-nicotinamide]
- Ki: 6.5 nM

Compound: Cc1onc(-c2ccccc2)c1COc1ccc(C(=O)NCC2CCCOC2)cn1 (stereo not shown) [Example 76, 6-(5-Methyl-3-phenyl-isoxazol-4-ylmethoxy)-N-(tetrahydro-pyran-3-ylmethyl)-nicotinamide]
- Ki: 11.7 nM

Compound: Cc1onc(-c2ccccc2)c1COc1ccc(C(=O)NCC(C)(C)O)cn1 [Example 193, N-(2-Hydroxy-2-methyl-propyl)-6-(5-methyl-3-phenyl-isoxazol-4-ylmethoxy)-nicotinamide]
- Ki: 2.3 nM

Compound: Cc1onc(-c2ccncn2)c1COc1ccc(C(=O)NC(C)C)cn1 [Example 313, N-Isopropyl-6-(5-methyl-3-pyrimidin-4-yl-isoxazol-4-ylmethoxy)-nicotinamide]
- Ki: 3 nM

Compound: Cc1onc(-c2ccc(F)cc2)c1COc1ccc(C(=O)NC(C)C)cn1 [Example 107, 6-[3-(4-Fluoro-phenyl)-5-methyl-isoxazol-4-ylmethoxy]-N-isopropyl-nicotinamide]
- Ki: 0.7 nM

Compound: Cc1onc(-c2ccccc2)c1COc1ccc(C(=O)NCCN2CCNC2=O)cn1 [Example 214, 6-(5-Methyl-3-phenyl-isoxazol-4-ylmethoxy)-N-[2-(2-oxo-imidazolidin-1-yl)-ethyl]-nicotinamide]
- Ki: 4.3 nM

Compound: Cc1onc(-c2ccccc2)c1COc1ccc(C(=O)NC2CCCN(CC(=O)NC3CC3)C2)cn1 (stereo not shown) [Example 43, N-(1-Cyclopropylcarbamoylmethyl-piperidin-3-yl)-6-(5-methyl-3-phenyl-isoxazol-4-ylmethoxy)-nicotinamide]
- Ki: 12.3 nM

Compound: Cc1onc(-c2cccc(F)c2)c1COc1ccc(C(=O)NC(C)C)cn1 [Example 91, 6-[3-(3-Fluoro-phenyl)-5-methyl-isoxazol-4-ylmethoxy]-N-isopropyl-nicotinamide]
- Ki: 2.3 nM

Compound: Cc1onc(-c2ccccc2)c1COc1ccc(C(=O)N2CCSCC2)cn1 [Example 54, [6-(5-Methyl-3-phenyl-isoxazol-4-ylmethoxy)-pyridin-3-yl]-thiomorpholin-4-yl-methanone]
- Ki: 25.6 nM

Compound: Cc1onc(-c2ccccc2)c1COc1ccc(C(=O)Nc2ccccc2)cn1 [Example 48, 6-(5-Methyl-3-phenyl-isoxazol-4-ylmethoxy)-N-phenyl-nicotinamide]
- Ki: 38 nM

Compound: Cc1onc(-c2ccccc2)c1CNc1ccc(C(=O)NCCO)cn1 [Example 162, N-(2-Hydroxy-ethyl)-6-[(5-methyl-3-phenyl-isoxazol-4-ylmethyl)-amino]-nicotinamide]
- Ki: 10.4 nM

Compound: Cc1onc(-c2ccccc2)c1COc1ccc(C(=O)N2CCS(=O)(=O)CC2)cn1 [Example 55, (1,1-Dioxo-1,6-thiomorpholin-4-yl)-[6-(5-methyl-3-phenyl-isoxazol-4-ylmethoxy)-pyridin-3-yl]-methanone]
- Ki: 22.8 nM

Compound: Cc1onc(-c2ccccc2)c1COc1ccc(C(=O)NC2CC(OCc3ccccc3)C2)cn1 (stereo not drawn) [Example 230, (cis or trans)-N-(3-Benzyloxy-cyclobutyl)-6-(5-methyl-3-phenyl-isoxazol-4-ylmethoxy)-nicotinamide]
- Ki: 1.2 nM

Compound: Cc1onc(-c2ccc(Cl)cn2)c1COc1ccc(C(=O)NCC2CC2)cn1 [Example 306, 6-[3-(5-Chloro-pyridin-2-yl)-5-methyl-isoxazol-4-ylmethoxy]-cyclopropylmethyl-nicotinamide]
- Ki: 0.3 nM
